Laboratory results: US9789110B2, “Diacylglycerol acyltransferase 2 inhibitors” (PFIZER INC., priority 2014, dated 2017)
Read-outs that look alike come from different tables or passages of the source.

Tests used:
[1] = target: DGAT2 in primary human hepatocytes (Homo sapiens (Human), UniProt Q96PD7); test: IC50 for DGAT2 inhibitors in human hepatocytes, [14C]-glycerol incorporation into lipids; type: cell-based
Protocol: For evaluation of the effects of DGAT2 inhibitors in a cell-based setting, cryopreserved human hepatocytes (Lot QOC and NON, Celsis, Chicago, Ill.) were thawed and plated onto type I collagen-coated plates according to the manufacturer's instructions. After 24 hours overnight recovery period, the cells were overlayed with media containing 250 μg/ml Matrigel (BD Biosciences, San Jose, Calif.). The following day, media was aspirated and replaced with serum-free Williams Media E (Life Technologies, Grand Island, N.Y.) containing 400 μM sodium dodecanoate (Sigma-Aldrich, St. Louis, Mo.). Forty minutes later, DGAT2 inhibitors (prepared as 100× stocks in 25% DMSO, 75% Williams' Media E) were added to the desired final concentration. […] After a 20 minute preincubation, 0.2 μCi [1,3-^14C]-glycerol glycerol (American Radio Chemicals, St. Louis, Mo.) was added to each well and mixed by gentle pipetting prior to a 3 hour incubation. At this point, media was aspirated and the cells were lysed in isopropyl alcohol: tetrahydrofuran (9:1) prior to centrifugation at 3000 rpm for 5 minutes. Radiolabeled lipids were resolved using a 2-solvent system by thin layer chromatography using standard technique (solvent 1 contained ethyl acetate:isopropyl alcohol:chloroform:methanol:0.25% potassium chloride in water (100:100:100:40.2:36.1, v/v/v/v) and solvent 2 contained hexane: diethyl ether: acetic acid (70:27:3, v/v/v)). After separation, radiolabeled lipids were visualized using a Molecular Dynamics' PhosphorImager system. The half maximal inhibitory concentrations (IC50 values) were determined using GraphPad Prism (GraphPad Software, Inc., La Jolla, Calif.).
Table 4 below provides IC50 values for the Examples in accordance with the above-described assay. Results were reported as average IC50 values, low and high IC50 range (95% confidence interval).

hDGAT2 = hDGAT2 (Homo sapiens (Human), UniProt Q96PD7); test: In vitro DGAT2 assay, hDGAT2 membrane fraction, [14C]decanoyl-CoA scintillation readout; type: biochemical; conditions: geometric mean; FLAG-hDGAT2 membrane fraction; 2 h preincubation; read-out: IC50 for inhibition of DGAT2
Protocol: Recombinant baculovirus for the FLAG-tagged hDGAT2 was generated in SF9 insect cells using Bac-to-Bac baculovirus expression system (Invitrogen) according to the manufacturer's protocol. For the expression of hDGAT2, SF9 cells (20 L) grown in Sf90011 media were infected with hDGAT2 baculovirus at a multiplicity of infection of 1 in a Wave Bioreactor System 20/50P wave bag (GE Healthcare). After 40 hours of infection, the cells were then harvested by centrifugation at 5,000×g. The cell pellets were washed by resuspending in phosphate buffered saline (PBS) and collected by centrifugation at 5,000×g. The cell paste was flash frozen in liquid N2 and stored at −80° C. until needed. All operations below were at 4° C. unless otherwise noted. The cells were resuspended in lysis buffer (50 mM Tris-HCl, pH 8.0, 250 mM sucrose) including 1 mM ethylenediaminetetraacetic acid (EDTA) and the complete protease inhibitor cocktail (Roche Diagnostics) at a ratio of 3 ml buffer per 1 g cell paste. The cells were lysed by dounce homogenizer. The cell debris was removed by centrifugation at 1,000×g for 20 min, and the supernatant was centrifuged at 100,000×g for 1 hour. The resulting pellet was rinsed three times by filling ultracentrifuge tubes to the top with ice cold PBS before decanting. The washed pellet was resuspended with gentle stirring for 1 hour in lysis buffer containing 8 mM 3-[(3-cholamidopropyl)dimethylammonio]-1-propanesulfonate (CHAPS) at a ratio of 1 mL buffer per 1 g of original cell paste and centrifuged again at 100,000×g for 1 hour. The resulting supernatant was aliquotted, flash frozen in liquid N2, and stored at −80° C. until use.
For determination of IC50 values, the reactions were carried out in 384-well white Polyplates (Perkin Elmer) in a total volume of 20 μL. To […] compounds dissolved in 100% DMSO and spotted at the bottom of each well, 5 μL of 0.04% bovine serum albumin (BSA) (fatty acid free, Sigma Aldrich) was added and the mixture was incubated at room temperature for 20 minutes. To this mixture, 10 μL of hDGAT2 membrane fraction (0.01 mg/mL) diluted in 100 mM Hepes-NaOH, pH 7.4, 20 mM MgCl2 containing 200 nM methyl arachidonyl fluorophosphonate (Cayman Chemical; dried from ethyl acetate stock solution under argon gas and dissolved in DMSO as 5 mM stock) was added. After this mixture was preincubated at room temperature for 2 hours, DGAT2 reactions were initiated by the addition of 4 μL of substrates containing 30 μM [1-^14C]decanoyl-CoA (custom-synthesized by Perkin Elmer, 50 mCi/mmol) and 125 μM 1,2-didecanoyl-sn-glycerol (Avanti Polar Lipids) dissolved in 12.5% acetone. The reaction mixtures were incubated at room temperature for 40 min and the reactions were stopped by addition of 5 μL of 1% H3PO4. After the addition of 45 μL MicroScint-E (Perkin-Elmer), plates were sealed with Top Seal-A covers (Perkin-Elmer) and phase partitioning of substrates and products was achieved using a HT-91100 microplate orbital shaker (Big Bear Automation, Santa Clara, Calif.). Plates were centrifuged at 2,000×g for 1 min in an Allegra 6R Centrifuge (Beckman Coulter) and then were sealed again with fresh covers before reading in a 1450 Microbeta Wallac Trilux Scintillation Counter (Perkin Elmer). DGAT2 activity was measured by quantifying the generated product [^14C]tridecanoylglycerol in the upper organic phase.
Inhibitors were tested at eleven different concentrations to generate IC50 values for each compound.

[2] = average, cryopreserved human hepatocytes, selective DGAT1 inhibitor 3 μM in all wells, 3 hour incubation, read-out: IC50 in primary human hepatocytes

Chain of hDGAT2 (Q96PD7 whole entry): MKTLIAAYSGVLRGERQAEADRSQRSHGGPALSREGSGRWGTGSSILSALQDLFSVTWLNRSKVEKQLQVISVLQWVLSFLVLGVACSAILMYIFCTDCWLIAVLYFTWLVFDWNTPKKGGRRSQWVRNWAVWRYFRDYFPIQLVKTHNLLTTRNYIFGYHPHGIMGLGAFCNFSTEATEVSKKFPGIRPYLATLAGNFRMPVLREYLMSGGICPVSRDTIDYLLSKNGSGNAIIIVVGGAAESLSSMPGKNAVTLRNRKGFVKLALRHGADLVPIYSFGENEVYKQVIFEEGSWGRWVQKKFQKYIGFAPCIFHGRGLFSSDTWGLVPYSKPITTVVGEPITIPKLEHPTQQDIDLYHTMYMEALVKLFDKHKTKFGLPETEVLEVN
Chain of DGAT2 in primary human hepatocytes (Q96PD7 whole entry): as above

| SMILES | IC50 [1] | IC50 (hDGAT2) | IC50 [1, 2] |
| --- | --- | --- | --- |
| CCOc1ccccc1O[C@@H]1CCCN(c2ncc(C(=O)NCc3cc(O)no3)cn2)C1 [Example 19.2, (R)-2-(3-(2-ethoxyphenoxy)piperidin-1-yl)-N-((3-hydroxyisoxazol-5-yl)methyl)pyrimidine-5-carboxamide] | 0.341 µM | 0.262 µM |  |
| CCOc1ccccc1O[C@@H]1CCCN(c2ncc(C(=O)NCc3nc(=O)[nH][nH]3)cn2)C1 [Example 20.5, (R)-2-(3-(2-ethoxyphenoxy)piperidin-1-yl)-N-((5-oxo-2,5-dihydro-1H-1,2,4-triazol-3-yl)methyl)pyrimidine-5-carboxamide] |  | 0.068 µM | 0.0816 µM |
| CCOc1ccccc1O[C@@H]1CCCN(c2ncc(C(=O)NCCc3cn[nH]c3O)cn2)C1 [Example 20.8, (R)-2-(3-(2-ethoxyphenoxy)piperidin-1-yl)-N-(2-(5-hydroxy-1H-pyrazol-4-yl)ethyl)pyrimidine-5-carboxamide] |  | 0.0293 µM | 0.0378 µM |
| CCOc1ccccc1O[C@@H]1CCCN(c2ncc(C(=O)N3CC[C@H]3C(N)=O)cn2)C1 [Example 20.10, (S)-1-(2-((R)-3-(2-ethoxyphenoxy)piperidin-1-yl)pyrimidine-5-carbonyl)azetidine-2-carboxamide] |  | 0.17 µM | 0.0598 µM |
